Test results: US5484773A, “Treatment of antibiotic associated diarrhea” (priority 1994, dated 1996)

Columns and labels:
C. difficile toxin A [1] = target: T1, C. difficile toxin A (Clostridioides difficile, UniProt P16154); experiment: Determination of optimal binding conditions (amount and incubation time) for toxin A neutralization, hemagglutination (Example 2, FIGS. 2 and 3); assay type: biochemical, Clostridium difficile; conditions: about 20 mg SYNSORB per 1 ml toxin A solution (20 mg/ml); 2 hours, 37° C.; FIG. 2
T1 construct: Toxin A was isolated from a toxin producing strain of C. difficile; made in house; host or cells: Clostridium difficile ATCC 43255 (VPI strain 10463), native toxin from culture supernatant, not recombinant
T1 sequence (P16154 whole entry, looked up): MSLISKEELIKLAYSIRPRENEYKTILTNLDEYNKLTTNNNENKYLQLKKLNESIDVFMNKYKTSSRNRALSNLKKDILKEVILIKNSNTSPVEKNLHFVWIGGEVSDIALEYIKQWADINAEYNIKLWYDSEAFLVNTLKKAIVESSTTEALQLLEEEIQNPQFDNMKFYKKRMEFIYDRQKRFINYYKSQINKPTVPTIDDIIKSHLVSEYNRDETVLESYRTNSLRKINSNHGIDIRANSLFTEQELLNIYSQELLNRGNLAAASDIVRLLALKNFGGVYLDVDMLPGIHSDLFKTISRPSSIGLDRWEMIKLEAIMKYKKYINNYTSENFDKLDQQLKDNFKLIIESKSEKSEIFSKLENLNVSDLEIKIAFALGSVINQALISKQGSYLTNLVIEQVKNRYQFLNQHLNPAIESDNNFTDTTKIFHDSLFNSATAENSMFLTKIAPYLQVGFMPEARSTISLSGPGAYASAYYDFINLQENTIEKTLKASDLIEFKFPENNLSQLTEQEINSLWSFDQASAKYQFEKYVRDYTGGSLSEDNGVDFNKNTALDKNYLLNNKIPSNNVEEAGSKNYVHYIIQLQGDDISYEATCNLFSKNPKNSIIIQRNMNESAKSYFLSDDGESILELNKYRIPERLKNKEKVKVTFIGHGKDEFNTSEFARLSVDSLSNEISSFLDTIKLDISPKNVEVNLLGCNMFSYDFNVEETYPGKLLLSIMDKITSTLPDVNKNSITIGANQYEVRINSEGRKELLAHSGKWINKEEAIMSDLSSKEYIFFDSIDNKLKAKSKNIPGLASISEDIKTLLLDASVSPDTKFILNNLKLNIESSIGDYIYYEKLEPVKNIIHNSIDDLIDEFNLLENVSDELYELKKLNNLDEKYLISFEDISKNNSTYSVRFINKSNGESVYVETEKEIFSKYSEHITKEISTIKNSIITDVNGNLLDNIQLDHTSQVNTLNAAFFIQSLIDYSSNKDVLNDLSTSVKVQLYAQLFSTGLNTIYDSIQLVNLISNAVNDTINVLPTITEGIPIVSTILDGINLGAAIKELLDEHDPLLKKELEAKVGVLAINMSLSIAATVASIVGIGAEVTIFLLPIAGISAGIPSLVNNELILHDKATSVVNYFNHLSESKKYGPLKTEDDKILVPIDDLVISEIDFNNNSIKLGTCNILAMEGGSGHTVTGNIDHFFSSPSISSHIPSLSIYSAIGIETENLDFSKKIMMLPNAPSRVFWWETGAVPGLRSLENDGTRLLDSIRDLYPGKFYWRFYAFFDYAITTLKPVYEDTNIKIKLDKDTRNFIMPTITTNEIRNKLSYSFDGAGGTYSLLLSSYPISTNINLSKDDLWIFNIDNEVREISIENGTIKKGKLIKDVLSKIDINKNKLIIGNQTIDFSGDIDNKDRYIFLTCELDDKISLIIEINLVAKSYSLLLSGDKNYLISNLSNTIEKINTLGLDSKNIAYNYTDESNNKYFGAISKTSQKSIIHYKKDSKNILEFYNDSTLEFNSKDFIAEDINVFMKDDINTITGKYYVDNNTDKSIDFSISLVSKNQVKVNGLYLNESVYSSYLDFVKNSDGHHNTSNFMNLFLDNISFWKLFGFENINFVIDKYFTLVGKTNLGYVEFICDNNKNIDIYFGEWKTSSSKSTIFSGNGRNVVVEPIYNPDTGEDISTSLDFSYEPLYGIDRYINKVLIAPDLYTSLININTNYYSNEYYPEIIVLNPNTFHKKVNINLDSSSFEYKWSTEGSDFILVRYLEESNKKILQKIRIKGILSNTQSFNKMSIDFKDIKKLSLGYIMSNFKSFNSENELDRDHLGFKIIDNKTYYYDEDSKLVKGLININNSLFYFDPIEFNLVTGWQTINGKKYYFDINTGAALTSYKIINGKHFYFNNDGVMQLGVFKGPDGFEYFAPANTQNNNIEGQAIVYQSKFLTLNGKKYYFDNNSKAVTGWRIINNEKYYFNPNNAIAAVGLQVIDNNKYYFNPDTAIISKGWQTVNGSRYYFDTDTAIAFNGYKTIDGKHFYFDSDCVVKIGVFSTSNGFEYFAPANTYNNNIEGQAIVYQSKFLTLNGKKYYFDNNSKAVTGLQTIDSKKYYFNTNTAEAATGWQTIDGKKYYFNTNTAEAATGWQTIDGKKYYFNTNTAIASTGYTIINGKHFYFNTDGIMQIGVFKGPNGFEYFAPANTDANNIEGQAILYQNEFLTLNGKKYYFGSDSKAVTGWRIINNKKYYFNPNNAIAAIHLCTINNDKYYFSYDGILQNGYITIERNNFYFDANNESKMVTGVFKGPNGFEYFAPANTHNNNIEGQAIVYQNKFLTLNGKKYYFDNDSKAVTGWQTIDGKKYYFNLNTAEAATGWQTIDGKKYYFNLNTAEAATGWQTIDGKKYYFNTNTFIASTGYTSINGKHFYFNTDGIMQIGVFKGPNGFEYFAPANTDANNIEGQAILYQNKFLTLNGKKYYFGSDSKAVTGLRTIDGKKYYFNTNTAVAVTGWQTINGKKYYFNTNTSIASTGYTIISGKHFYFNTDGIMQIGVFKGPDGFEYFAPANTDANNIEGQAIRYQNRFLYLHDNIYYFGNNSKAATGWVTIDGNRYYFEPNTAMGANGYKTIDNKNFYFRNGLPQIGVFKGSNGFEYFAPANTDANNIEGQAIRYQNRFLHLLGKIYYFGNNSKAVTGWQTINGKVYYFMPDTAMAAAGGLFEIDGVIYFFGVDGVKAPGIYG
Procedure: (§1) Fresh rabbit erythrocytes were washed once in phosphate buffered saline (PBS) and resuspended at a concentration of 4% (v/v) in cold PBS. Serial 2-fold dilutions (50 μl) of toxin A-containing solutions were made in cold PBS in U-shaped microtiter wells. An equal volume (50 μl) of rabbit erythrocytes was then added to each well and the microtiter plate was mixed gently. After incubating the plate for 4 hours at 4° C., the hemagglutination titer was visually assessed.
The amount of SYNSORBS 52 and 90 required for maximal toxin A neutralization was determined by adding 1 ml of a purified toxin A solution to pre-weighed amounts of each SYNSORB in 1.5 ml microcentrifuge tubes. SYNSORB 52 samples were tested using 12.8, 21.6 and 43.3 mg amounts of SYNSORB 52; SYNSORB 90 samples were tested using 12.9, 19.2 and 42.3 mg amounts of SYNSORB 90. Samples were incubated for 2 hours at 37° C. on an end-over-end rotator. […]
The amount of neutralization in each sample was determined by comparing the endpoint titers of hemagglutination assays from samples with and without SYNSORB.
The length of incubation time required for optimal neutralization was determined by incubating microcentrifuge tubes containing 1 ml of purified toxin A solution and 20 mg of either SYNSORB 52 or SYNSORB 90. […]
The degree of neutralization at each incubation period was determined as described above.

C. difficile toxin A [2] = target: T1, C. difficile toxin A; experiment: Screening: neutralization of purified toxin A hemagglutination activity by SYNSORBs (Example 1, FIG. 1); assay type: biochemical, Clostridium difficile
Procedure: The amount of toxin A adsorption to SYNSORB was determined by assaying supernatants for reduction of endpoint titers in hemagglutination assays relative to controls without any added SYNSORB. […] SYNSORBs 2, 5, 104, 105, and 134 neutralized about 50% of toxin A activity.
Toxin A was isolated from a toxin producing strain of C. difficile (ATCC 43255, VPI strain 10463) using slight modifications of the method of Sullivan et al..
C. difficile was grown in 2.3 liter of brain heart infusion broth (BHIB) in anaerobic jars for 72 hours at 37° C. The crude culture was centrifuged at 5,000× g for 20 minutes to sediment the bacteria. The resulting culture supernatant was carefully removed and solid ammonium sulfate (897 g) was added to make 60% saturation. […]
Fresh rabbit erythrocytes were washed once in phosphate buffered saline (PBS) and resuspended at a concentration of 4% (v/v) in cold PBS. […] After incubating the plate for 4 hours at 4° C., the hemagglutination titer was visually assessed. […]
After incubation, the SYNSORB was allowed to settle to the bottom of the tubes and the supernatants were carefully removed. Serial 2-fold dilutions of the supernatants were prepared and the hemagglutination endpoint determined as described above.
The extent of reduction in the endpoint in the presence of SYNSORB was determined by comparing the endpoint with that of controls in which SYNSORB was not added. […]

CDAD or PMC = conditions: cited from earlier work; for patients in whom diarrhea returns after discontinuing antibiotic treatment: after oral Metronidazole or Vancomycin therapy, ref. [15]; for therapy effective, share of patients who suffer from CDAD or PMC: oral Metronidazole or Vancomycin with removal of offending drug and fluid replacement
C. difficile toxin A [3] = target: T1, C. difficile toxin A; experiment: Determination of binding affinity of SYNSORBs to toxin A, hemagglutination titer reduction (Example 4, FIG. 4); set-up: species or system Clostridium difficile; conditions: rabbit erythrocytes
Procedure: For the purposes of this invention, oligosaccharide sequences attached to solid supports which bind toxin A means those compositions which reduce endpoint titers from hemagglutination assays by at least 50%.
as §1
To assess the binding affinity of various SYNSORBs to toxin A, each SYNSORB was combined with toxin A as described in Example 1. Endpoint titers from hemagglutination assays using rabbit erythocytes were determined as described previously. […] Those SYNSORBs which reduced titers by greater than 50% were deemed to bind toxin A.

## αGal(1-3)βGal(1-4)βGlc [SYNSORB 90]
C. difficile toxin A [1]
  neutralization of toxin A activity: more than 75%
C. difficile toxin A [2]; purified toxin A, hemagglutination vs controls without SYNSORB
  neutralization of toxin A activity (in words): as effective at neutralizing toxin A activity

## CN[C@H](CC(C)C)C(=O)N[C@H]1C(=O)N[C@@H](CC(N)=O)C(=O)N[C@H]2C(=O)N[C@H]3C(=O)N[C@H](C(=O)N[C@H](C(=O)O)c4cc(O)cc(O)c4-c4cc3ccc4O)[C@H](O)c3ccc(c(Cl)c3)Oc3cc2cc(c3O[C@@H]2O[C@H](CO)[C@@H](O)[C@H](O)[C@H]2O[C@H]2C[C@](C)(N)[C@H](O)[C@H](C)O2)Oc2ccc(cc2Cl)[C@H]1O [Vancomycin]
CDAD or PMC
  patients in whom diarrhea returns after discontinuing antibiotic treatment: about 20%
  therapy effective, share of patients who suffer from CDAD or PMC: about 80%

## αGal(1-3)βGal(1-3)βGlcNAc [SYNSORB 134]
C. difficile toxin A [2]; purified toxin A 0.5 ml, 10.1 to 17.5 mg SYNSORB, room temperature, 2 hours, rabbit erythrocytes
  removal/neutralization of toxin A activity (reduction of endpoint titers in hemagglutination assays): about 50%

## αGal(1-4)βGal(1-4)βGlc [SYNSORB 68]
C. difficile toxin A [3]
  binding to toxin A (criterion: titer reduced by greater than 50%): bind toxin A

## βGal(1-4)βGlcNAc [SYNSORB 34]
C. difficile toxin A [3]
  binding to toxin A (criterion: titer reduced by greater than 50%): appear not to bind toxin A

## Cc1ncc([N+](=O)[O-])n1CCO [Metronidazole]
CDAD or PMC
  patients in whom diarrhea returns after discontinuing antibiotic treatment: about 20%
  therapy effective, share of patients who suffer from CDAD or PMC: about 80%

## αNeuAc(2-6)βGal(1-4)βGlc [SYNSORB 89]
C. difficile toxin A [3]
  binding to toxin A (criterion: titer reduced by greater than 50%): appear not to bind toxin A
